Laboratory results from US6825209B2, “Compounds having unique CB1 receptor binding selectivity and methods for their production and use” (Research Triangle Institute, priority 2002, dated 2004).
Read-outs that look alike come from different tables or passages of the source.

How the values were obtained:
[1] = target: T1, G-protein-linked cannabinoid receptors (Rattus norvegicus, UniProt P20272); assay: GTP-γ-[35S] binding in whole rat brain; assay type: biochemical; details: whole rat brain membranes; for Emax, GTP-γ-[35S] in Whole Rat Brain / Emax: effects reported as percent change from basal; for Emax: read-out: Emax, GTP-γ-[35S] in Whole Rat Brain
T1 construct: tissue Charles River or Pel-Freez Biologicals; host or cells: whole rat brain crude membrane homogenate
T1 sequence (P20272 whole entry): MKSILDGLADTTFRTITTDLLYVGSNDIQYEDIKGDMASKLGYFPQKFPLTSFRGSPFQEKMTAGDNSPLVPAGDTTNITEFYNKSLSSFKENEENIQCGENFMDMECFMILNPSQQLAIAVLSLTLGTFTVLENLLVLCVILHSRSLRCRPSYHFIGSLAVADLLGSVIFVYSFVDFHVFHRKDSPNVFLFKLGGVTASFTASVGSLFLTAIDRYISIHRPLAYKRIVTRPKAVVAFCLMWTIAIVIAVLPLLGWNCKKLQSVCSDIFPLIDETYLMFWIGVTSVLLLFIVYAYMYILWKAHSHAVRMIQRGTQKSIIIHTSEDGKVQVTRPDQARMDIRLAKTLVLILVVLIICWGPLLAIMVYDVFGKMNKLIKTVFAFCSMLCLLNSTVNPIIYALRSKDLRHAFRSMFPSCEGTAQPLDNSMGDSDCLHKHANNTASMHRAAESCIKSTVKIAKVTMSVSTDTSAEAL
Source text: Cannabinoid receptor-mediated alteration in GTP-γ-[^35S] binding.
Introduction. The purpose of this assay was to characterize the functional activity of lead compounds identified by the radioligand competition binding assays described above. Data from the GTP-γ-[^35S] binding assay was used to determine if a compound was an agonist, antagonist or inverse agonist at G-protein-linked cannabinoid receptors. Agonist binding to a G-protein-linked receptor results in an increased affinity of the G-protein α-subunit for GTP relative to GDP. Eventually, an active αGTP complex forms to complete the stimulus-effector coupling. The α-subunit has intrinsic GTPase activity which generates a free α-subunit which can recombine with the β- and γ-subunits readying the G-protein for another signal transduction cycle. In the current assay, GTP-γ-[^35S] cannot be hydrolyzed by the α-subunit. Thus, the amount of bound GTP-γ-[^35S] is a marker for G-protein activation. In this assay, an agonist increases basal GTP-γ-[^35S] binding, an inverse agonist decreases basal binding and basal binding would be unaffected by an antagonist.
Experimental Design. The specific binding of GTP-γ-[^35S], in the absence of test compound, was termed “basal” activity. Test compounds were characterized as agonist, antagonist, or inverse agonist based on their effect on basal activity. […] The concentrations spanned two orders of magnitude because affinity may not be related to efficacy. […] Effects of the test compounds are reported as the percent change from basal. More thorough dose-response analysis may be run to determine, for example, if a compound is a full or partial agonist.
Methods. […] In a final volume of 0.5 mL, each assay tube contained: 0.02 mg crude membrane homogenate (0.1 mL), 200 μM GDP (0.05 mL; to reduce basal G-protein activity), 0.1 nM GTP-γ-[^35S] (0.05 mL) and several concentrations of test compound (0.05 mL) or an equivalent volume of vehicle (used for determination of total binding). Nonspecific binding was determined in the presence of 100 μM unlabeled GTP-γ-S (0.05 mL). Duplicate samples were incubated for 1 h at 30° C. Since this assay is amenable for use with high throughput screening methods, the binding assays were run using a 96-well plate format. Specific binding was calculated as total binding-nonspecific binding.

human CB2 receptor = target: T2, human CB2 receptor (Homo sapiens, UniProt P34972); assay: Displacement of 3H-CP55,940 in human CB2 receptor-transfected cells (CHO-K1); assay type: binding; details: radioligand 3H-CP55940, Tables 6 and 7
T2 construct: expressed in transfected cells; host or cells: CHO-K1
T2 sequence (P34972 whole entry): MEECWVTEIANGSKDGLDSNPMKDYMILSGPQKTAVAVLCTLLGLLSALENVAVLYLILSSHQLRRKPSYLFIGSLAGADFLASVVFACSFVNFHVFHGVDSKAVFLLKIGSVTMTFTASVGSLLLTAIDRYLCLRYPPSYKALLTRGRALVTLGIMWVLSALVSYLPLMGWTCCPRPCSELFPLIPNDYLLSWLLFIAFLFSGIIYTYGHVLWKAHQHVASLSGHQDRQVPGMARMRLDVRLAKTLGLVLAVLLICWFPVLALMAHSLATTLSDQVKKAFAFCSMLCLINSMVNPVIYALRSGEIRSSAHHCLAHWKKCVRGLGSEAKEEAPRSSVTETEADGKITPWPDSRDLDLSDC
Description: Human CB2 receptor affinity. The relative selectivity of the analogs for CB1 versus CB2 receptors varied modestly regardless of the structural modifications examined to date.
(§1) Methods—binding assay in transfected cell lines. The methods used for performing binding assays in transfected cells expressing human CB1 or CB2 receptors are those used above. The CB1 receptor involved a HEK-293 expression system whereas the CB2 receptor was expressed in CHO-K1 cells. […] The incubations and separations were then performed as described above for rat brain membrane preparations.
(§2) Data analysis. Saturation and displacement data were analyzed by unweighted nonlinear regression of receptor binding data. For displacement studies, curve-fitting and IC50 calculation were done with GraphPad Prism (GraphPad Software, Inc., San Diego, Calif.), which fits the data to one and two-site models and compares the two fits statistically. A similar approach was used for the analysis of isotherm data for calculation of Kd's. A two-site fit was accepted only if it was statistically significant (p<0.05) and the following results were not observed:
(§3) IC50 values were then converted to Ki values by reported methods (Cheng and Prusoff, 1973). The statistical evaluation of curve-fitting data allowed for a non-arbitrary conclusion based on the displacement data.

CB1 receptor = target: T3, CB1 receptor (Rattus norvegicus, UniProt P20272); assay: Radioligand displacement in whole rat brain (CB1) membrane preparations; assay type: binding
T3 construct: Whole rat brains or dissected regions from live CD rats; tissue Charles River or Pel-Freez Biologicals; host or cells: whole rat brain (CD rats), P2 membrane
T3 sequence (P20272 whole entry): as the sequence (P20272 whole entry) above
Source text: CB1 receptor affinity in rat brain.
Methods—membrane preparation from brain. The methods for tissue preparation are essentially those described by Devane et al. (1988) as modified by Compton et al. (1993) and later by Thomas et al. (1998). Whole rat brains or dissected regions from live CD rats from Charles River or Pel-Freez Biologicals (Rogers, Ark.), or human brain sections obtained from the National Disease Research Institute, were allowed to thaw to room temperature on ice. Both whole brain and dissected brain regions were used because different brain regions may express different cannabinoid receptor subtypes (Skaper et al., 1996; Thomas et al., 1998). The tissue was homogenized with a Kontes Potter-Elvehjem glass-Teflon grinding system (Fisher Scientific, Springfield, N.J.) in buffer 1 (320 mM sucrose, 2 mM EDTA, 5 mM MgCl2. The homogenate was centrifuged at 1600 g for 10 min. The supernatant was saved and combined with the two subsequent supernatants obtained from washing and 1600 g centrifugation of the P1 pellet. The combined supernatant fractions were then centrifuged at 39,000 g for 15 min. The P2 pellet was resuspended in 50 mL of buffer 2 (50 mM Tris.HCl, 2 mM EDTA, 5 mM MgCl2, pH 7.0), incubated at 37° C. for 10 min, then centrifuged at 23,000 g for 10 min. The P2 membrane was resuspended in 50 mL of buffer 2, incubated at 30° C. for 40 min, then centrifuged at 11,000 g for 15 min. The final wash-treated P2 pellet was resuspended in assay buffer 3 (50 mM Tris.HCl, 1 mM EDTA, 3 MM MgCl2, pH 7.4). Protein concentrations were determined by the method of Bradford (1976) using Coomassie brilliant blue dye (Bio-Rad, Richmond, Calif.) and BSA standards (bovine serum albumin, fatty acid free, Sigma Chemical Co., St. Louis, Mo.) prepared in assay buffer 3. The membrane preparation was divided into aliquots and stored at −80° C. For use in the binding assay, an aliquot of frozen membranes was thawed on ice and diluted to a concentration of ca. 0.2 mg/mL in assay buffer.
Methods—binding assay in brain membrane preparation. The methods for ligand binding are essentially those described by Devane et al. (1988) with the exception that we used a filtration assay. […] All cannabinoid analogs were prepared by suspension in buffer A from a 1-5 mg/mL ethanolic stock. Following incubation at 30° C. for 1 h, binding was terminated by vacuum filtration through pretreated filters in a 96-well sampling manifold (Millipore, Bedford, Mass.). Reaction vessels were washed at least 3 times with 1 mL of ice cold buffer B (50 mM Tris.HCl, 1 mg/mL BSA). The filter plates were air-dried and sealed on the bottom. Liquid scintillant was added to the wells and the top sealed. After incubating the plates in cocktail for at least 2 h, the radioactivity present was determined by liquid scintillation spectrometry. Assays were done in duplicate, and results represent the combined data of three to six independent experiments. All assays were performed in polypropylene test tubes. The GF/C glassfiber filter plates (Packard, Meriden, Conn.) were pretreated in buffer B for at least 1 h.
as §2, §3

human CB1 receptor = target: T4, human CB1 receptor (Homo sapiens, UniProt P21554); assay: Radioligand displacement in human CB1 receptor-transfected cells (HEK-293); assay type: binding; details: Table 3
T4 construct: expressed in transfected cells; host or cells: HEK-293
T4 sequence (P21554 whole entry): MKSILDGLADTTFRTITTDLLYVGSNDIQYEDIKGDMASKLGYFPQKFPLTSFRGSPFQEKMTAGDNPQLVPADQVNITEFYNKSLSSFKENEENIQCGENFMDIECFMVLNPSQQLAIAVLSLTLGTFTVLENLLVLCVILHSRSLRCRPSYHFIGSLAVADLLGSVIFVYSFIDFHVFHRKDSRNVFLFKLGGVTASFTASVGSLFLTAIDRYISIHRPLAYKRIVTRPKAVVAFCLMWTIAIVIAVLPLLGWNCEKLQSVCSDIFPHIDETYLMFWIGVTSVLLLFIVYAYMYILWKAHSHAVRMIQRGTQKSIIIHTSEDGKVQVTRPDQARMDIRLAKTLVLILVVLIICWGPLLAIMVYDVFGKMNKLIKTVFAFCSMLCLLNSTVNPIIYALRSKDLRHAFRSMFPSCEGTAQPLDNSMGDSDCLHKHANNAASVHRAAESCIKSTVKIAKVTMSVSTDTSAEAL
Description: Human CB1 receptor affinity. The alkyl amide analogs of the present invention were examined using transfected cell lines expressing the human CB1 receptor (Table 3).
as §1, §2, §3

[2] = inverse agonist/antagonist activity, read-out: EC50, GTP-γ-[35S] in Whole Rat Brain
[3] = Ki, displacement of 3H-CP55940, human CB2 transfected cells
[4] = Ki, displacement of 3H-SR141716A, whole rat brain membranes, radioligand 3H-SR141716A, Tables 1 and 2
[5] = whole rat brain membranes, radioligand 3H-SR141716A, Tables 1 and 2
[6] = read-out: Ki, displacement of 3H-CP55940, whole rat brain membranes, radioligand 3H-CP55940, Tables 1 and 2
[7] = whole rat brain membranes, radioligand 3H-CP55940, Tables 1 and 2
[8] = displacement of 3H-CP55940, human CB1 transfected cells, radioligand 3H-CP55940
[9] = displacement of 3H-SR141716A, human CB1 transfected cells, radioligand 3H-SR141716A
[10] = human CB1 transfected cells, radioligand 3H-CP55940
[11] = human CB1 transfected cells, radioligand 3H-SR141716A
[12] = human CB1 transfected cells, radioligand 3H-WIN55212-2
[13] = read-out: Ki, displacement of 3H-CP55940, human CB2 transfected cells
[14] = read-out: Ki, displacement of 3H-SR141716A, whole rat brain membranes, radioligand 3H-SR141716A, Tables 1 and 2

| Molecule | Emax, GTP-γ-[35S] in Whole Rat Brain [1] | EC50 [1, 2] [nM] | Max. Disp. %, 3H-CP55940 (human CB2 receptor; human CB2 transfected cells) [%] | Max. Disp. %, 3H-SR141716A (CB1 receptor; [5]) [%] | Ki (CB1 receptor; [6]) [nM] | Max. Disp. %, 3H-CP55940 (CB1 receptor; [7]) [%] | Emax [1] [%] | Ki (human CB2 receptor; [13]) [nM] | Ki (CB1 receptor; [14]) [nM] | other results |
| --- | --- | --- | --- | --- | --- | --- | --- | --- | --- | --- |
| Cc1c(C(=O)NC(C)CO)nn(-c2ccc(Cl)cc2Cl)c1-c1ccc(Cl)cc1 (single isomer, unassigned) [MF9725-105-38] | −83.8 | 294000 | 47.5 | 96.8 |  |  |  |  |  | Ki (human CB2 receptor; [3]): 5900 nM; Ki (CB1 receptor; Ki, displacement of 3H-CP55940, whole rat brain membranes, radioligand 3H-CP55940, Tables 1 and 2): 117 nM; Ki (CB1 receptor; [4]): 123 nM |
| Cc1c(C(=O)NC(C)CO)nn(-c2ccc(Cl)cc2Cl)c1-c1ccc(Cl)cc1 (single isomer, unassigned) [MF9725-106-39] | −83.0 | 292000 | 52.1 | 100 | 117 | 89.7 |  |  |  | Ki (human CB2 receptor; [3]): 1770 nM; Ki (CB1 receptor; [4]): 99.8 nM |
| CCNC(=O)c1nn(-c2ccc(Cl)cc2Cl)c(-c2ccc(Cl)cc2)c1C [MF9725-54C] |  | 30300 | 59.6 | 100 | 46.3 | 91.4 | -46.9 | 3110 | 61.5 | Ki (human CB1 receptor; [8]): 137 nM; Ki (human CB1 receptor; [9]): 35.1 nM; Ki (human CB1 receptor; displacement of 3H-WIN55212-2, human CB1 transfected cells, radioligand 3H-WIN55212-2): 185 nM; Max. Disp. %, 3H-CP55940 (human CB1 receptor; [10]): 66.7%; Max. Disp. %, 3H-SR141716A (human CB1 receptor; [11]): 95.3%; Max. Disp. %, 3H-WIN55212-2 (human CB1 receptor; [12]): 78.8% |
| CCCNC(=O)c1nn(-c2ccc(Cl)cc2Cl)c(-c2ccc(Cl)cc2)c1C [MF9725-55C] |  | 11100 | 68.3 | 100 | 29.9 | 97.4 | -35.7 | 2960 | 23.6 | Ki (human CB1 receptor; [8]): 33.7 nM; Ki (human CB1 receptor; [9]): 6 nM; Max. Disp. %, 3H-CP55940 (human CB1 receptor; [10]): 81.9%; Max. Disp. %, 3H-SR141716A (human CB1 receptor; [11]): 93.4%; Max. Disp. %, 3H-WIN55212-2 (human CB1 receptor; [12]): 73.3% |
| Cc1c(C(=O)NCCCO)nn(-c2ccc(Cl)cc2Cl)c1-c1ccc(Cl)cc1 [MF9725-94-31] |  | 241000 | 43.1 | 100 | 160 | 86.6 | -83.3 | 1250 | 156 |  |
| Cc1c(C(=O)NCCCCO)nn(-c2ccc(Cl)cc2Cl)c1-c1ccc(Cl)cc1 [MF9725-95-31] |  | 304000 | 54.3 | 97.6 | 154 | 88.7 | -79.5 | 5720 |  |  |
| Cc1c(C(=O)NN)nn(-c2ccc(Cl)cc2Cl)c1-c1ccc(Cl)cc1 [MF9879-34-8] |  |  | 80.8 | 85.9 | 374 | 68.4 | -71.7 | 12100 | 602 | EC50 ([1]; value above highest concentration tested (footnote), read-out: EC50, GTP-γ-[35S] in Whole Rat Brain, value is above highest concentration on displacement curve): ≥ 419000 nM |
| Cc1c(C(=O)NN2CCCCC2)nn(-c2ccccc2)c1-c1ccc(Cl)cc1 [MF9879-64-23] | −47.2 | 361000 |  |  |  |  |  |  |  |  |
| Cc1c(C(=O)NN2CCCCC2)nn(C2CCCCC2)c1-c1ccc(Cl)cc1 [MF9879-117-24] | −71.7 | 108000 |  |  |  |  |  |  |  |  |
| CCCCCCCn1nc(C(=O)NN2CCCCC2)c(C)c1-c1ccc(Cl)cc1 [MF10278-20-15] | −85.7 | 156000 |  |  |  |  |  |  |  |  |
| CCCCCCn1nc(C(=O)NN2CCCCC2)c(C)c1-c1ccc(Cl)cc1 [MF10278-22-16] | −71.5 | 74700 |  |  |  |  |  |  |  |  |
| SR144528 [reference compound] | −27.7 |  | 88.4 | 68.6 |  | 84.7 |  |  |  | Max. Disp. %, 3H-CP55940 (CB1 receptor; whole rat brain, 3H-CP55940, Table 4, parallel synthesis analogs, n = 1): 84.7%; Max. Disp. %, 3H-SR141716A (CB1 receptor; whole rat brain, 3H-SR141716A, Table 4, parallel synthesis analogs, n = 1): 68.6% |
